Assay [1] concerns the target T1, human holoIR-A over-expressed in HEK293 cells (Homo sapiens, UniProt P06213).
T1 construct: expressed in transfected cells; host or cells: HEK293, stably transfected
Briefly: Inhibition of hIR phosphorylation by peptides, co-incubated with BHI at its EC50 (ELISA). The settings on record: for hIRA Phosph IC50 Run 1 / hIRA Phosph IC50 Run 2 / hIRA Phosph IC50 Run 3: inhibition of insulin-stimulated phosphorylation; for hIRA Phosph IC50 Run 1: BHI at its EC50, run 1; for hIRA Phosph IC50 Run 2: BHI at its EC50, run 2; for hIRA Phosph IC50 Run 3: BHI at its EC50, run 3; for IC50: read-out: hIRA Phosph IC50 Mean. The class given is cell-based. As for the experimental part:
Phosphorylation was quantified using an ELISA technique. Ninety-six well, flat-bottom microplates (Greiner Bio-One) were pre-coated with 2 µg mL^−1 anti-C9 monoclonal antibody (Rho 1D4; University of British Columbia)[27] in 20 mM sodium carbonate, pH 9.6, at 4 °C for overnight prior to the assay. On the assay day, plates were washed 3× with 0.1% Tween in 50 mM Tris Buffer Saline, pH 7.5 (TBST), and then blocked for greater than 1 h at room temperature (RT) with 1% BSA (Sigma) in TBST.
Stably transfected HEK293 cells over-expressing human holoIR-A containing a C-terminal C9 epitope tag ([…]), were plated at 6 × 10^4 cells per well serum-starved using 0.1% BSA in DMEM (Gibco) for overnight at standard tissue culture condition. […] After a 15-min incubation in lysis buffer at 4 °C, the lysate was transferred to anti-C9 antibody coated capture plate (Rho 1D4; University of British Columbia)[27]. […] After a 1 h incubation at room temperature, the secondary antibody was removed by washing 3× with TBST. Signal detection occurred with the addition of TMB, an HRP substrate (Pierce). After 5–10 min, the reaction was stopped by adding an equal volume of 2 M H2SO4, and the absorbance readings at 450 nm (A450) were recorded using a Envision plate reader (PerkinElmer). Samples were tested in three independent assay runs on three different days.
Percent specific response (y-axis) was plotted versus the log concentration of compound (x-axis) using Prism Version 9.3.1 (GraphPad Software). Individual measurements are provided as Source Data.
(In an ELISA, binding on a coated surface is turned into a signal by an enzyme label.)

The target of another assay is T2, human IR-A (holoIR-A) (Homo sapiens, UniProt P06213).
T2 construct: expressed in transfected cells; host or cells: HEK293 (ATCC #CRL-1573), stably transfected; membrane preparation
Briefly: holoIR-A competitive radioligand binding assay (scintillation proximity assay). The settings on record: for Ki: IM172N22(-) mutant peptide set. As for the experimental part: Cellular membranes were prepared from human embryonic kidney (HEK293; ATCC #CRL-1573) cells stably transfected with cDNA corresponding to human IR-A (holoIR-A) plus a C-terminal C9 tag ([…]) inserted within a pcDNA3.1 plasmid (Invitrogen), with positive clones selected with 800 μg mL^−1 neomycin and confirmed by Western Blot. Frozen cell pellets were thawed in ice-cold homogenization/resuspension buffer (50 mM Tris-HCl, pH 7.5) containing one cOmplete® protease inhibitor tablet with EDTA (Roche Diagnostics) per 50 mL buffer. Cells were homogenized with an overhead motor-driven Teflon-glass homogenizer using 15–20 strokes, followed by centrifugation at 1100 × g for 10 min at 4 °C. The supernatant was saved on ice, pellets were homogenized as before, and centrifuged at 1100 × g for 10 min at 4 °C. Both supernatants were combined and subsequently centrifuged at 35,000 × g for 60 min at 4 °C. The pellet was resuspended in buffer (4 to 5 mL g^−1 of starting cell paste) containing protease inhibitors and quick frozen in liquid nitrogen prior to storage at −80 °C. Protein concentration was determined using a BCA kit (Thermo Scientific) with bovine serum albumin (BSA) as standard.
The assays were performed with a scintillation proximity assay (SPA) method using polyvinyltoluene (PVT) wheat germ agglutinin-coupled SPA beads (Perkin Elmer). Assay buffer containing 50 mM Tris-HCl (pH 7.5), 150 mM NaCl, 0.1% w/v fatty-acid free BSA was used for all compound testing and reagent preparation. Ten-point concentration response curves with three-fold serial dilutions of test samples or controls were prepared in the assay buffer. […] Plates were sealed and shaken for 1 min on a plate shaker. Following a 10-h incubation and bead settling period at room temperature, radioactivity was determined using a MicroBeta Trilux scintillation counter (Perkin Elmer) and expressed as counts per minute (CPM). […] Samples were tested in three independent assay runs on three different days.
All test sample concentration responses were normalized to the control response and calculated as a percent of the maximal response after correcting for nonspecific binding as shown below: %Specific Inhibition=100%−[(CPM−MIN)/(MAX−MIN)×100%]
Percent specific binding (y-axis) was plotted vs log concentration of compound (x-axis) using Prism Version 9.3.1 (GraphPad Software). Individual measurements are provided as Source Data.
Background: In a scintillation proximity assay essentially only radioactivity close to the scintillant gives light.

[2] abbreviates: mean of 3 runs, read-out: hIRA Binding Ki Mean.
The mark [3] stands for this setting: run 1, read-out: hIRA Binding Ki Run 1.
Setting [4] is: run 2, read-out: hIRA Binding Ki Run 2.
The mark [5] stands for this setting: run 3, read-out: hIRA Binding Ki Run 3.

Read-outs that look alike come from different tables or passages of the source. Positions of bridges follow the written chain, without caps; N, C: chain ends. Residues, ends and D or L forms follow the SMILES beside them. A value given as a limit tells only on which side of the number the result lay.

T2 sequence (P06213 28-1370 isoform P06213-2 limits assumed): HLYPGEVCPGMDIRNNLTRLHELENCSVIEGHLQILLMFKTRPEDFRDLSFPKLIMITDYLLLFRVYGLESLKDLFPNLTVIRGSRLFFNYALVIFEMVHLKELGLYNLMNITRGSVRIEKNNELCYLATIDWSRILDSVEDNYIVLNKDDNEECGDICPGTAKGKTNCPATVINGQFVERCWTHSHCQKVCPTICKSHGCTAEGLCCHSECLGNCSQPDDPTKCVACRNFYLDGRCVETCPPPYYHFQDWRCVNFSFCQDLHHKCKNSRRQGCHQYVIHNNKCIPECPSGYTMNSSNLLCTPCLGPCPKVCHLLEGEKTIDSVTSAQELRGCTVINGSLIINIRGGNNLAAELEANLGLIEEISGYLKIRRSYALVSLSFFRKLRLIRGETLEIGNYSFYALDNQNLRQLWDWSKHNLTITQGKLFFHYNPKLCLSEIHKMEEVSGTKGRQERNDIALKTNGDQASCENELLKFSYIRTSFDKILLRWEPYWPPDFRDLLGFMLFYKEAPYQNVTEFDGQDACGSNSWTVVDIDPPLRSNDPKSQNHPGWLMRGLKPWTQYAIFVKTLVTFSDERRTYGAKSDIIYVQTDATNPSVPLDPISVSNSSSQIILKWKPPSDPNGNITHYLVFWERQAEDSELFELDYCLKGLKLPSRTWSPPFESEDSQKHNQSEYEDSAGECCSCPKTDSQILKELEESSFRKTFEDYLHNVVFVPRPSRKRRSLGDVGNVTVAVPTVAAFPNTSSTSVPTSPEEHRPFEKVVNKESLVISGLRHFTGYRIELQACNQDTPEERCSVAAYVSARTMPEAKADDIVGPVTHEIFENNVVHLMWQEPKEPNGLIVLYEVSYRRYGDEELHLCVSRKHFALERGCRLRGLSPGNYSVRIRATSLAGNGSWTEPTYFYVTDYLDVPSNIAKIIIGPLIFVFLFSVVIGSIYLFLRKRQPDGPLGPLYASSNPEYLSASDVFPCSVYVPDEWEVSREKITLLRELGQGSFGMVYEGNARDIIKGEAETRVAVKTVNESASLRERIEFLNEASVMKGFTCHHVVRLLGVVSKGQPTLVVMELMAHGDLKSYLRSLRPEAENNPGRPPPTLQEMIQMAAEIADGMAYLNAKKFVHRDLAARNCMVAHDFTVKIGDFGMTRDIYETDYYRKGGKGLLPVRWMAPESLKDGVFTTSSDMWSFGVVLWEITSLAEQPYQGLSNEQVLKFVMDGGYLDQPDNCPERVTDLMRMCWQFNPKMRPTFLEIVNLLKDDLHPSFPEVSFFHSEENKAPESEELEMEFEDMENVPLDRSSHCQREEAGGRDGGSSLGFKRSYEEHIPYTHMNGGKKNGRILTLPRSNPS
T2 sequence (P06213 763-1382 partner limits assumed): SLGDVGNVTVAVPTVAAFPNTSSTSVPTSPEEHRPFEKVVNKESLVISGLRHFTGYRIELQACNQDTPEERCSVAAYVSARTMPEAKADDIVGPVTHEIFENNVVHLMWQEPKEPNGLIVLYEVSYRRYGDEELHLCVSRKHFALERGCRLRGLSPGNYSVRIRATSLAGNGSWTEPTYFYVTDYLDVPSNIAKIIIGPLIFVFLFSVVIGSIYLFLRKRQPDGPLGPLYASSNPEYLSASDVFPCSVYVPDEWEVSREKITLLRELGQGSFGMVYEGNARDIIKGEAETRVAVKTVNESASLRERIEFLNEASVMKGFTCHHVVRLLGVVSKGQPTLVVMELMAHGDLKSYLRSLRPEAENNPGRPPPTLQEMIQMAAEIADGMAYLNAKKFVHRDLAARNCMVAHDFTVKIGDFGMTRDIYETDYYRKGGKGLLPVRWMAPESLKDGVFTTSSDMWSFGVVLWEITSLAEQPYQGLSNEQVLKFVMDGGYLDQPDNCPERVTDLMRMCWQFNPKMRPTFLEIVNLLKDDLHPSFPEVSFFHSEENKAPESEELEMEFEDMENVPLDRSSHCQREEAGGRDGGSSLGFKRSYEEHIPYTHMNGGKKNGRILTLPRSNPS
T1 sequence (P06213 28-1370 isoform P06213-2 limits assumed): as the sequence (P06213 28-1370 isoform P06213-2 limits assumed) above
T1 sequence (P06213 763-1382 partner limits assumed): as the sequence (P06213 763-1382 partner limits assumed) above

Broadly, the IC50 is the concentration needed to halve the response being measured. What is called Ki is the dissociation constant of the complex between target and ligand, obtained from inhibition or displacement. Turning to `CC[C@H](C)[C@H](NC(=O)[C@H](CCC(N)=O)NC(=O)[C@H](C)NC(=O)[C@H](C)NC(=O)[C@H](CCC(=O)O)NC(=O)[C@H](CCC(=O)O)NC(=O)[C@H](CCC(=O)O)NC(=O)[C@H](CC(C)C)NC(=O)[C@H](CO)NC(C)=O)C(=O)N[C@@H](CCC(=O)O)C(=O)N[C@H]1CSSC[C@@H](C(=O)N2CCC[C@H]2C(=O)N2CCC[C@H]2C(=O)N[C@@H](CO)C(=O)N[C@@H](CCC(=O)O)C(=O)N[C@@H](CO)C(N)=O)NC(=O)[C@H](CCCNC(=N)N)NC(=O)CNC(=O)[C@H](Cc2ccc(O)cc2)NC(=O)[C@H](C(C)C)NC(=O)[C@H](CCC(=O)O)NC1=O` [Peptide W6A] (Ac-SLEEEAAQIECEVYGRCPPSES-NH2; disulfide 11-17), in assay [1], the “hIRA Phosph IC50 Run 1” value is recorded as more than 10000 nM, the “hIRA Phosph IC50 Run 2” value is on record as more than 10000 nM, the “hIRA Phosph IC50 Run 3” value is given as more than 10000 nM and the IC50 was more than 10000 nM. Also, the inhibitory constant (Ki) on human IR-A (holoIR-A) (setting [2]) is more than 4240 nM. In addition, the Ki on human IR-A (holoIR-A) (setting [3]) is more than 1210 nM. The Ki at human IR-A (holoIR-A) (setting [4]) is more than 4160 nM. The Ki at human IR-A (holoIR-A) (setting [5]) is more than 4240 nM. Moreover, the “binding of the mutant peptide to hIR-A (in words)” value at human IR-A (holoIR-A) (alanine substitution in IM172N22(-)) is recorded as “no detectable binding”.

For the molecule `CC[C@H](C)[C@H](NC(=O)[C@H](CCC(N)=O)NC(=O)[C@H](C)NC(=O)[C@H](Cc1c[nH]c2ccccc12)NC(=O)[C@H](CCC(=O)O)NC(=O)[C@H](CCC(=O)O)NC(=O)[C@H](CCC(=O)O)NC(=O)[C@H](CC(C)C)NC(=O)[C@H](CO)NC(C)=O)C(=O)N[C@@H](CCC(=O)O)C(=O)N[C@H]1CSSC[C@@H](C(=O)N2CCC[C@H]2C(=O)N2CCC[C@H]2C(=O)N[C@@H](CO)C(=O)N[C@@H](CCC(=O)O)C(=O)N[C@@H](CO)C(N)=O)NC(=O)[C@H](CCCNC(=N)N)NC(=O)CNC(=O)[C@H](Cc2ccc(O)cc2)NC(=O)[C@H](C(C)C)NC(=O)[C@H](CCCNC(=N)N)NC1=O` [Peptide E12R] (Ac-SLEEEWAQIECRVYGRCPPSES-NH2; disulfide 11-17), in assay [1], the “hIRA Phosph IC50 Run 1” value amounted to 2869 nM, the “hIRA Phosph IC50 Run 2” value stood at 2922 nM, the “hIRA Phosph IC50 Run 3” value was 2670 nM and the IC50 was found to be 2820 nM. Also, the Ki at human IR-A (holoIR-A) (setting [2]) was determined as 132 nM. Also, the inhibition constant (Ki) at human IR-A (holoIR-A) (setting [3]) is 117 nM. The Ki at human IR-A (holoIR-A) (setting [4]) is recorded as 126 nM. The Ki on human IR-A (holoIR-A) (setting [5]) worked out at 152 nM.

Turning to `CC[C@H](C)[C@H](NC(=O)[C@H](CCC(N)=O)NC(=O)[C@H](C)NC(=O)[C@H](Cc1c[nH]c2ccccc12)NC(=O)[C@H](CCC(=O)O)NC(=O)[C@H](CCC(=O)O)NC(=O)[C@H](CCC(=O)O)NC(=O)[C@H](CC(C)C)NC(=O)[C@H](CO)NC(C)=O)C(=O)N[C@@H](CCCNC(=N)N)C(=O)N[C@H]1CSSC[C@@H](C(=O)N2CCC[C@H]2C(=O)N2CCC[C@H]2C(=O)N[C@@H](CO)C(=O)N[C@@H](CCC(=O)O)C(=O)N[C@@H](CO)C(N)=O)NC(=O)[C@H](CCCNC(=N)N)NC(=O)CNC(=O)[C@H](Cc2ccc(O)cc2)NC(=O)[C@H](C(C)C)NC(=O)[C@H](CCC(=O)O)NC1=O` [Peptide E10R] (Ac-SLEEEWAQIRCEVYGRCPPSES-NH2; disulfide 11-17), in assay [1], the “hIRA Phosph IC50 Run 1” value was 27 nM, the “hIRA Phosph IC50 Run 2” value is given as 27 nM, the “hIRA Phosph IC50 Run 3” value is 24 nM and the IC50 is 26.2 nM. For the same molecule, the Ki on human IR-A (holoIR-A) (setting [2]) was found to be 3.7 nM. In addition, on human IR-A (holoIR-A) (setting [3]), the Ki is 3.77 nM. Further, the Ki at human IR-A (holoIR-A) (setting [4]) is on record as 3.11 nM. Also, the Ki at human IR-A (holoIR-A) (setting [5]) stood at 4.23 nM.

The record behind these values is article PMC9519552, “Activation of the human insulin receptor by non-insulin-related peptides” (Nature Communications, 2022).
